The values below come from patent US20060063938A1, “Compounds to treat hiv infection and aids” (priority 2001, published 2006).

For one data set, the target named is HIV-1 integrase (Human immunodeficiency virus type 1 group M subtype B, UniProt P04585). The data set is described as follows: In vitro HIV-1 integrase assay (3′-processing and strand transfer) with 21-mer U5 LTR oligonucleotide. The data set is classed as biochemical.
Data set [1] has as its system HIV-1. The data set is described as follows: microbe, parasite or virus in culture. Particulars: for IC50: read-out: 50% Inhibitory Conc. (IC50). The data set is classed as cell-based.
The subject of the next data set is 293T cells. Nature of the data set: Cell proliferation inhibition (XTT) cell toxicity assay. The data set is classed as cell-based. How it is done:
To ensure that inhibition of luciferase activity in the presence of the compounds was indeed due to inhibition of HIV-1 infection and not due to the toxicity of these compounds to the target cells, we performed a cell toxicity assay in the presence of the same concentrations of compounds that were used for IC50 determination (FIG. 5).
Cell proliferation inhibition assay. The effects of inhibitors on cell toxicity were determined by using Cell Proliferation Kit II (XTT) (Roche Molecular Biochemicals). Target cells (293T) were plated at a density of 1×10^3 per well of 96-well plate. Twenty-four hours later cells were treated with an inhibitor for 36 hours. After inhibitor was removed, cells were incubated for additional 48 hours and then were stained with 50 μL of the XTT labeling mix per well (Roche Molecular Biochemicals). Spectrophotometrical absorbance of the samples was measured 4 hours after addition of the labeling mix at wavelengths of 450 nm with a reference point at 700 nm in a 96-well plate reader.
In general terms: Tetrazolium assays rely on reduction of a dye to a coloured formazan, in cell work by metabolically active cells.

For data set [2], the system named is replication competent HIV-1. The data set is described as follows: Inhibition of replication competent HIV-1 in H9 cells, p24 antigen ELISA. The data set is classed as cell-based. The conditions noted are these: 25 μM B compound, 15 days. The procedure:
FIG. 6. Determination of inhibition of replication competent HIV-1 by B compound. HIV-1 infection was carried out in the presence of 25 μM B compound, 100 nM AZT, or in the absence of any drugs. Uninfected H9 culture was used as a negative control. […] Each time point of each culture was evaluated in duplicate.
Inhibition of replication competent HIV-1 by B compound was evaluated at 25 μM concentration. 293T cells were transfected with pNL4-3, a plasmid that encodes full HIV-1 genome. Virus harvested from the transfected cells was used to infect H9 target cells. […] In addition, H9 infected cells were cultured in the presence of 100 nM AZT as a control.
H9 T-lymphoid cells (ATCC) were maintained in the presence of RPMI 1640 Medium (Cellgro), 20% fetal calf serum (HyClone Laboratories), penicillin (50 U/ml; Gibco) and streptomycin (50 μg/ml; Gibco), 2 μg/ml Polybrene (Sigma). […] After 4 hours of infection, H9 cells were washed, resuspended in 2 ml of cell culture medium containing an appropriate drug and maintained in 35-mm-diameter dish. Cultures were fed every 3 days by removing 1 ml of cell culture suspension and replacing with equivalent amount of fresh medium containing an appropriate drug.

Data set [3] deals with HIV-1. The conditions noted are these: read-out: IC50 reported previously; Hazuda et al. 2000; cited from earlier work.
Setting [4] is: 3′-processing step of integration reaction, read-out: IC50 3′-Processing.
Setting [5] is: strand transfer step of integration reaction, read-out: IC50 Strand transfer.
Where [6] appears, read: Human immunodeficiency virus 1, HEK-293T.

“And” between values parts separate entries of the source, which are not always exact repeats. Identical values can stand only once. “Also recorded” adds a separate entry of the source. Like-named read-outs stand apart in the source and are kept apart here. Some results are limits rather than exact numbers.

As for `[N-]=[N+]=Nc1cccc(C(=O)C=C(O)C(=O)O)c1` [Compound D, 4-(3-azido-phenyl)-2-hydroxy-4-oxo-but-2-enoic acid], the 50% inhibitory concentration (IC50) (commonly the midpoint of a concentration-inhibition curve) is greater than 100 µM at HIV-1 integrase (setting [4]); 5.3 µM and 5.2 µM at HIV-1 integrase (setting [5]). The “Luciferase Activity Relative to No Drug Control (Avg ± S.E.)” value in the data set on HIV-1 [1] is on record as 137 ± 12%. Besides, in the data set on 293T cells, the “concentration giving 50% inhibition of cell proliferation” value is on record as “approximately 19 μM”.

As for `O=C(O)C(O)=CC(=O)c1ccc(Oc2ccccc2)cc1` [Compound F], the concentration for half-maximal inhibition (IC50) on HIV-1 integrase (setting [4]) was greater than 100 µM; on HIV-1 integrase (strand transfer step of integration reaction, listed as 16, read-out: IC50 Strand transfer), 7.8 µM and 15 µM. Further, in the data set on HIV-1 [1], the “Luciferase Activity Relative to No Drug Control (Avg ± S.E.)” value turned out to be 261 ± 5%.

For `Cc1cc(C)cc(C(=O)C=C(O)C(=O)O)c1` [Compound E], the concentration for half-maximal inhibition (IC50) is greater than 100 µM at HIV-1 integrase (setting [4]); 9 µM and 11 µM at HIV-1 integrase (strand transfer step of integration reaction, listed as 15, read-out: IC50 Strand transfer). In the data set on HIV-1 [1], the “Luciferase Activity Relative to No Drug Control (Avg ± S.E.)” value amounted to 99 ± 14%. In the data set with HIV-1 [1], the “antiviral activity in single cycle assay” value is recorded as “did not show antiviral activity; also recorded: showed no antiviral activity”.

Consider `O=C(C=C(O)c1nnn[nH]1)c1c[nH]c2ccccc12` [Compound P4, reference compound], for which the IC50 on HIV-1 integrase (setting [4]) is greater than 100 µM; on HIV-1 integrase (strand transfer step of integration reaction, listed as 6, read-out: IC50 Strand transfer), 1.9 µM and 2 µM. For the same molecule, the “Luciferase Activity Relative to No Drug Control (Avg ± S.E.)” value in the data set with HIV-1 [1] is reported as 116 ± 27%.

For the molecule `[N-]=[N+]=NCc1ccc(C(=O)C=C(O)C(=O)O)cc1CN=[N+]=[N-]` [Compound C], the IC50 was greater than 100 µM on HIV-1 integrase (setting [4]); 0.26 µM and 0.15 µM at HIV-1 integrase (strand transfer step of integration reaction, listed as 4, read-out: IC50 Strand transfer); 19000 nM with HIV-1 [1]. In the data set on HIV-1 [1], the “Luciferase Activity Relative to No Drug Control (Avg ± S.E.)” value is given as 36 ± 7%.

Consider `[N-]=[N+]=NCc1cccc(C(=O)C=C(O)C(=O)O)c1` [Compound B, 4-(3-azidomethyl-phenyl)-2-hydroxy-4-oxo-but-2-enoic acid], for which the values for the concentration for half-maximal inhibition (IC50) on HIV-1 integrase (setting [4]), on HIV-1 integrase (setting [5]) and in the data set with HIV-1 [1] (setting [6]) were greater than 100 µM, 1.53 ± 0.27 µM and 500 nM, respectively. In addition, the “Luciferase Activity Relative to No Drug Control (Avg ± S.E.)” value in the data set with HIV-1 [1] worked out at 15 ± 7%. For the same molecule, in data set [2], the “HIV-1 replication (p24 antigen) in infected H9 culture” value is “no significant amounts of HIV-1 replication was detected; also recorded: strongly inhibited replication competent HIV-1”.

As for `COc1ccc(Cn2nnnc2C(O)=CC(=O)c2c[nH]c3ccc(Cl)cc23)cc1` [Compound P20, reference compound], the 50% inhibitory concentration (IC50) on HIV-1 integrase (3′-processing step of integration reaction, listed as 10, read-out: IC50 3′-Processing) is 7.2 µM and 7.5 µM; on HIV-1 integrase (setting [5]) it was 1.28 ± 0.38 µM. In addition, the “Luciferase Activity Relative to No Drug Control (Avg ± S.E.)” value in the data set with HIV-1 [1] is given as 133 ± 35%.

Consider `O=C(C=C(O)c1nnn[nH]1)c1c[nH]c2ccc(F)cc12` [Compound P31, reference compound], for which the 50% inhibitory concentration (IC50) stood at 82 µM at HIV-1 integrase (3′-processing step of integration reaction, listed as 14, read-out: IC50 3′-Processing) and 6.56 ± 0.81 µM on HIV-1 integrase (strand transfer step of integration reaction, listed as 14, read-out: IC50 Strand transfer). Also, the “Luciferase Activity Relative to No Drug Control (Avg ± S.E.)” value with HIV-1 [1] was 61 ± 17%.

As to `O=C(O)C(O)=CC(=O)c1cccc(OCc2ccccc2)c1` [Compound H], the IC50 at HIV-1 integrase (3′-processing step of integration reaction, listed as 18, read-out: IC50 3′-Processing) was 65 µM and 100 µM; on HIV-1 integrase (setting [5]) it was 0.35 ± 0.13 µM; in the data set with HIV-1 [1] it was 600 nM. In addition, the “Luciferase Activity Relative to No Drug Control (Avg ± S.E.)” value with HIV-1 [1] is listed as 14 ± 3%.

As to `[N-]=[N+]=NCc1cc(CN=[N+]=[N-])cc(C(=O)/C=C(\O)C(=O)O)c1` [Compound A, 4-(3,5-bis-azidomethyl-phenyl)-2-hydroxy-4-oxo-but-2-enoic acid], the IC50 was greater than 100 µM on HIV-1 integrase (setting [4]); 2 µM and 2.8 µM at HIV-1 integrase (setting [5]); 1600 nM in the data set on HIV-1 [1] (setting [6]). The “Luciferase Activity Relative to No Drug Control (Avg ± S.E.)” value in the data set with HIV-1 [1] was determined as 5 ± 6%.

With `COc1ccc(Cn2nnnc2C(O)=CC(=O)c2c[nH]c3ccccc23)cc1` [Compound P23, reference compound], the results for the IC50 at HIV-1 integrase (setting [4]) and on HIV-1 integrase (setting [5]) were greater than 100 µM and 6.9 µM, respectively. Besides, in the data set on HIV-1 [1], the “Luciferase Activity Relative to No Drug Control (Avg ± S.E.)” value worked out at 104 ± 25%.

Turning to `O=C(C=C(O)c1nnn[nH]1)c1c[nH]c2ccc(F)cc12` [Compound P18, reference compound], the IC50 on HIV-1 integrase (3′-processing step of integration reaction, listed as 9, read-out: IC50 3′-Processing) was 79 µM; on HIV-1 integrase (strand transfer step of integration reaction, listed as 9, read-out: IC50 Strand transfer), 1.8 µM. Also, the “Luciferase Activity Relative to No Drug Control (Avg ± S.E.)” value in the data set on HIV-1 [1] was determined as 59 ± 13%.

Consider `COc1ccc(Cn2nnnc2C(O)=CC(=O)c2c[nH]c3ccc(F)cc23)cc1` [Compound P22, reference compound], for which the IC50 at HIV-1 integrase (3′-processing step of integration reaction, listed as 11, read-out: IC50 3′-Processing) was 8.1 µM and 5.5 µM; at HIV-1 integrase (strand transfer step of integration reaction, listed as 11, read-out: IC50 Strand transfer), 2.2 µM and 1.6 µM. Besides, the “Luciferase Activity Relative to No Drug Control (Avg ± S.E.)” value in the data set on HIV-1 [1] was found to be 98 ± 28%.

Consider `O=C(O)C(O)=CC(=O)c1cccc(C(=O)c2ccccc2)c1` [Compound I], for which the half-maximal inhibitory concentration (IC50) is greater than 100 µM on HIV-1 integrase (setting [4]); 2.7 µM and 2.1 µM at HIV-1 integrase (strand transfer step of integration reaction, listed as 19, read-out: IC50 Strand transfer). Also, the “Luciferase Activity Relative to No Drug Control (Avg ± S.E.)” value in the data set on HIV-1 [1] is listed as 19 ± 2%.

With `O=C(O)C(O)=CC(=O)c1cc(OCc2ccccc2)cc(OCc2ccccc2)c1` [Compound P10, reference compound], the concentration for half-maximal inhibition (IC50) on HIV-1 integrase (setting [4]) is greater than 1000 µM; on HIV-1 integrase (setting [5]), 1.03 ± 0.25 µM; in the data set on HIV-1 [1], 2300 nM; with HIV-1 [3], 2500 nM. Besides, the “effect on 3′-processing step” value on HIV-1 integrase (concentrations up to the millimolar range) is reported as “unaffected”. Besides, on HIV-1 integrase (strand transfer), the “IC50 for the strand transfer reaction” value is “in the micromolar range”. For the same molecule, in the data set on HIV-1 [1], the “Luciferase Activity Relative to No Drug Control (Avg ± S.E.)” value was 7% and 7 ± 2%.

For the molecule `O=C(C=Cc1ccc(O)c(O)c1)Nc1cccc(C(=O)C=C(O)C(=O)O)c1` [Compound G], the IC50 turned out to be 9 µM at HIV-1 integrase (setting [4]), 4.7 µM on HIV-1 integrase (setting [5]) and 2200 nM in the data set with HIV-1 [1]. In addition, the “Luciferase Activity Relative to No Drug Control (Avg ± S.E.)” value in the data set on HIV-1 [1] is listed as 24 ± 8%.
